Results taken from patent EP0414806B1, “HIGH RATIO ACTIVE AGENT:LIPID COMPLEX” (THE LIPOSOME COMPANY, INC., priority 1988, dated 1989).

How the values were obtained:
[1] = Serum levels of cefazolin after a single intravenous dose; assay type: in vivo, mice
Experimental: (§1) The antibacterial activity was measured by an agar well diffusion bioassay, though other assays for antibacterial activity or chemical, or immunological assays for the drug substance are known to those skilled in the art. Briefly, the agar well diffusion bioassay used here were performed by cutting wells into an agar such as Trypticaso Soy Agar (Difco., Detroit, MI) that were previously seeded with a test bacteria such as Bacillus subtilis (ATCC #6633). The wells were filled with a small amount of test material here about 50ul of the test sample, and the agar plates were incubated. Bacillus subtilis incubation was for about 16-24 hours at about 35°C. Growth of a bacterial "lawn" around the well was inhibited by antibiotic present in the agar as diffused from the test sample. The diameters of the zones of inhibited growth around the wells were proportional to the concentration of antibiotic in the test sample and were quantitated by comparison with known, standard antibiotic solutions.
Both cephapirin and cefazolin display prolonged activity in serum and activity at a higher level by the cephalosporin:lipid complex preparation as compared to the free drug. […] Extended prophylactic activity in the serum can also be achieved by subcutaneous administration of a cephalosporin:lipid complex antibiotic.
Intravenous injection of a single 100mg/kg dose of free cefazolin dosium in mice results in a mean serum concentration of 8 to 20ug/ml at one hour post dose (Fig. 9).

[2] = test system: many susceptible organisms; conditions: for many susceptible organisms; cited from earlier work
[3] = Tissue distribution of cephapirin activity after intravenous administration (agar well diffusion bioassay); assay type: in vivo, mice; conditions: 200 mg/kg intravenous; for concentration at 1 h / concentration at 3 h / concentration at 7 h / concentration at 10 h / concentration at 24 h: mouse
Experimental: as §1

[4] = Serum levels of cephapirin activity after subcutaneous or intravenous administration; assay type: in vivo, mice
Experimental: as §1
Cephapirin activity in the serum of mice was determined at intervals after subcutaneous or intravenous administration of free or complexed drug. […] Maximal activity was found in the serum of mice given free cephapirin (by either route) at the earliest time points examined (one half to one hour post-injection). […] With a 200 mg/kg dose, serum levels were 10 ug/ml or greater for 24 hours after injection. […]

S. aureus (ATCC #29740) [5] = experiment: In vitro minimal inhibitory concentration by micro-titer dilution method; assay type: cell-based; conditions: Staphylococcus aureus, ATCC29740
S. aureus (ATCC #29740) [6] = experiment: Staphylococcal Abscess Model; assay type: in vivo, Mice (out-bred CD-1 males); conditions: single dose (200 mg/kg)
Experimental: Staphylococcal Abscess Model. S. aureus (ATCC #29740) was grown overnight at 30°C in trypticase soy broth. Aliquots of this suspension were frozen at -70°C. […] For use, cultures were thawed and diluted with saline to contain the desired number of colony forming units (CFU) per ml. Mice (out-bred CD-1 males) were injected subcutaneously with 0.1 ml of S. aureus suspension in the abdominal area. Treatment with free or encapsulated drug was given before or after infection. At four days after infection, mice were killed by cervical dislocation, the abscesses were carefully dissected out and their diameters measured.
To determine the effect of treatment on abscess development, mice were given a single intravenous or subcutaneous injection of free or complexed cephapirin at various times before or after injection.

S. aureus = experiment: Staphylococcal Septicemia Model; assay type: in vivo, Mice; conditions: for % Survival at 72 hours: 10 mice
Experimental: Staphylococcal Septicemia Model. The S. aureus inoculum was prepared as for the abscess model. Mice were inoculated intraperitoneally with 2 x 10⁸ CFU in 5% hog/mucin. Treatment was given before or after infection. […]
The effect of free and CHStris cephalosporin:lipid complex cephapirin was compared in an acute staphylococcus septicemia model.

[7] = test system: S. typhimurium (ATCC #14028); experiment: Salmonella typhimurium Septicemia Model; assay type: in vivo, Mice; conditions: 700 CFU intravenously; treatment on days 2 and 4 post-inoculation; groups of 10
Experimental: Salmonella typhimurium Septicemia Model: S. typhimurium (ATCC #14028) was grown in trypticase soy broth at 35°C overnight. Aliquots of this suspension were frozen and maintained at -70°C. For use, cultures were thawed and diluted to contain 700 CFU/ml in 0.9% saline. Mice were inoculated intravenously (0.1 ml) via the lateral tail vein. Treatment was given at various times after infection. Mortality was monitored daily for two weeks.
Mice (in groups of 10) that were inoculated intravenously with 700 CFU of S. typhimurium and received no treatment died within 6-8 days after infection (Fig. 11). […] In this case, the cephalosporin:lipid complex preparation was not washed so that 30% of the administered dose was encapsulated.

in vivo = conditions: mouse, iv, 924 mg/kg
Experimental: Contrast agents were tested in mice by injecting a single intravenous dose of free or complexed contrast agent (diatrizoate) via the tail vein. […] The specific activity of the doses were about 10000 c/mg I.

Compound: cefazolin sodium [free cefazolin]
- mean serum concentration ([1]; mouse, in vivo, iv, 100 mg/kg, 1 h): 8000 to 20000 ng/mL
- serum level ([1]; mouse, in vivo, iv, 100 mg/kg, 2 h): approximately 2 ug/ml
- serum level ([1]; single 100mg/kg intravenous dose, at 3 hours after administration): below the level of detection
- MICp [2]: about 0.5 ug (base weight)/ml (plasma or serum)
- MICt [2]: about 0.5 ug (base weight)/mg (spleen)

Compound: CC(=O)OCC1=C(C(=O)O)N2C(=O)[C@@H](NC(=O)CSc3ccncc3)[C@H]2SC1 [Free Cephapirin, cephapirin sodium]
- activity in tissues ([3]; at 3 hours or later): No activity was detected
- concentration at 1 h ([3]; KIDNEY, time 1 (hours after injection), mean of 3 to 5 mice ± S.E.M.): 49000 ± 8000 ng/g
- concentration at 3 h ([3]; KIDNEY, mean ± S.E.M.): < 500 ng/g
- concentration at 7 h ([3]; KIDNEY, mean ± S.E.M.): < 500 ng/g
- concentration at 10 h ([3]; KIDNEY, mean ± S.E.M.): < 500 ng/g
- concentration at 24 h ([3]; KIDNEY, mean ± S.E.M.): < 500 ng/g
- concentration at 1 h ([3]; LIVER, time 1, mean ± S.E.M.): 46000 ± 12000 ng/g
- concentration at 3 h ([3]; LIVER, mean ± S.E.M.): < 500 ng/g
- concentration at 7 h ([3]; LIVER, mean ± S.E.M.): < 500 ng/g
- concentration at 10 h ([3]; LIVER, mean ± S.E.M.): < 500 ng/g
- concentration at 24 h ([3]; LIVER, mean ± S.E.M.): < 500 ng/g
- concentration at 1 h ([3]; SPLEEN, time 1, mean ± S.E.M.): < 500 ng/g
- concentration at 3 h ([3]; SPLEEN, mean ± S.E.M.): < 500 ng/g
- concentration at 7 h ([3]; SPLEEN, mean ± S.E.M.): < 500 ng/g
- concentration at 10 h ([3]; SPLEEN, mean ± S.E.M.): < 500 ng/g
- concentration at 24 h ([3]; SPLEEN, mean ± S.E.M.): < 500 ng/g
- activity in the serum ([4]; at 3 hours or later): no activity was detectable
- half-life of free drug ([4]; serum, both intravenous and sub-cutaneous administration, estimated): approximately 20 minutes
- MIC (S. aureus (ATCC #29740) [5]): 0.05 to 0.1 µg/mL
- effect on abscess size (S. aureus (ATCC #29740) [6]; four hours before infection (complex: up to four hours before)): no effect on abscess size
- effect on abscess size (S. aureus (ATCC #29740) [6]; one hour after infection): significantly reduces or prevents abscess development
- effect on abscess size (S. aureus (ATCC #29740) [6]; one hour before infection): reduced abscess size slightly
- % Survival at 72 hours (S. aureus; treated subcutaneously -1 hour, 50 mg/kg): 100%
- % Survival at 72 hours (S. aureus; treated subcutaneously -1 hour, 100 mg/kg): 100%
- % Survival at 72 hours (S. aureus; treated subcutaneously -1 hour, 200 mg/kg): 100%
- % Survival at 72 hours (S. aureus; treated subcutaneously -4 hour, 50 mg/kg): 0%
- % Survival at 72 hours (S. aureus; treated subcutaneously -4 hour, 100 mg/kg): 10%
- % Survival at 72 hours (S. aureus; treated subcutaneously -4 hour, 200 mg/kg): 0%
- survival (S. aureus; treated subcutaneously at one hour before infection, end of the experiment (14 days)): survived until the end of the experiment
- survival (S. aureus; treatment at four hours before infection): no effect on survival
- survival [7]: did not prolong survival

Compound: CC(=O)Nc1c(I)c(NC(C)=O)c(I)c(C(=O)O)c1I [free diatrizoate, diatrizoate]
- concentration at 0.5 h (in vivo): 2.8e+06 ng/g
- concentration at 1 h (in vivo): 800000 ng/g
- concentration at 1.5 h (in vivo): 300000 ng/g
